The test system of data set [1] is EGFP expression in the liver. The data set is described as follows: EGFP expression in liver after intravenous EGFP mRNA LNP (ELISA). The note with it: 0.5 mg/kg IV, 24 h post-IV administration, BALB/c mice (n = 4). On the technique in general: ELISA stands for enzyme-linked immunosorbent assay.
Data set [2] is described as follows: Particle characteristics of LNPs containing EGFP mRNA and novel ionizable lipids. The note with it: EGFP mRNA LNP 1.6:54.6:32.8:10.9. It is filed as physicochemical. How it is done:
The lipid solution contains 4 components: a PEG-conjugated lipid, an ionizable lipid, cholesterol, and a phospholipid (e.g., DSPC). Lipid stocks were prepared using the lipid identities and molar ratios as described, to achieve a total concentration of ˜7 mg/mL in 100% ethanol. […] Equal volumes of the lipid and nucleic acid solutions were blended at a flow rate of 400 mL/min through a T-connector, and diluted with ˜4 volumes of PBS, pH 7.4. Formulations were placed in Slide-A-Lyzer dialysis units (MWCO 10,000) and dialyzed overnight against 10 mM Tris, 500 mM NaCl, pH 8 buffer. Following dialysis, the formulations were concentrated to ˜0.6 mg/mL using VivaSpin concentrator units (MWCO 100,000) and dialyzed overnight against 5 mM Tris, 10% sucrose, pH 8 buffer. Formulations were filtered through a 0.2 μm syringe filter (PES membrane). Nucleic acid concentration was determined by the RiboGreen assay. Particle size and polydispersity were determined using a Malvern Nano Series Zetasizer.
LNP formulations containing novel ionizable lipids all produced stable particles with high encapsulation efficiency (Tables 20-23).

The nature of data set [3]: Parent ionizable lipid remaining in liver at 24 h after EGFP mRNA LNP (LC-MS). The format is in vivo. The note with it: 24 h after IV 0.5 mg/kg EGFP mRNA LNP, female BALB/c mice (n = 4). How it is done:
(§1) Liver tissues were treated with PBS and homogenized with a FastPrep machine, 3 cycles of 5 m/s×15 s. Homogenates from the PBS-treated control animals was pooled and used for standard curve preparation. Samples were extracted into a deep well plate with 250 μL of an internal suitability standard. Plates were centrifuged for 15 min at 4° C. and 2000 rpm. Analysis was performed using an Agilent 6520 QTOF coupled to an Agilent 1290 UHPLC, using reverse-phase LC separation. Quantitation of the ionizable lipid was by MS/MS against a calibration curve spiked into appropriately matched blank matrix. Calibration used a similar class of synthetic lipid as internal standard.
At 24 h post-dose, some treatment groups reported lower levels of novel ionizable lipid in mouse liver compared to the benchmark (Tables 28-31).

A short description of data set [4]: Particle characteristics of LNPs containing luciferase mRNA and novel ionizable lipids. The format is physicochemical. The following applies: luciferase mRNA LNP 1.6:54.6:32.8:10.9. The essentials: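 LNPs made from PEG-lipid, ionizable lipid, cholesterol and phospholipid in ethanol, T-mixed with luciferase mRNA in 100 mM acetate pH 5. Products were dialysed, concentrated, and dialysed into 5 mM Tris, 10% sucrose, pH 8, then 0.2 μm filtered. mRNA was measured by RiboGreen, and size and polydispersity by dynamic light scattering on a Zetasizer.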

Data set [5] has as its system luciferase activity in the liver. As to the kind of experiment: Luciferase activity in liver after intravenous luciferase mRNA LNP. It is filed as in vivo. The following applies: 0.5 mg/kg IV, 6 h post-IV administration, BALB/c mice (n = 4).
Data set [6] is described as follows: Parent ionizable lipid remaining in liver at 6 h after luciferase mRNA LNP (LC-MS). The format is in vivo. The following applies: 6 h after IV 0.5 mg/kg Luciferase mRNA LNP. How it is done:
as §1
At 6 h post-dose, some treatment groups reported lower levels of novel ionizable lipid in mouse liver compared to the benchmark (Tables 16-18).

Where [7] appears, read: Table 16, female BALB/c mice (n = 4).

From US20250332112A1, “IONIZABLE CATIONIC LIPIDS FOR LIPID NANOPARTICLES” (GENEVANT SCIENCES GMBH, priority 2022, published 2025) come the findings set out here.

In turn, `CCCCCCCCCCN(C(=O)CCCN(C)C)C(CCCCCCCCC)CCCCCCC(F)C(=O)OC(CCCCCC)CCCCCC` (centres unmarked) [Compound 113, Tridecan-7-yl 9-(N-decyl-4-(dimethylamino)butanamido)-2-fluorooctadecanoate] showed an EGFP in data set [1] (Table 26) of 3.45E+07 pg/g liver. In addition, in data set [2] (Table 22), the “Final Product % EE” value was found to be 98%, the “Final Product PDI” value was 0.05 and the “Final Product Z-avg” value was 72 nm. Moreover, in data set [3] (Table 30), the “Parent ionizable lipid remaining in liver, Average” value (from here on “Parent ionizable lipid remaining”) came to 4.68 nmol/g liver.

Consider `CCCCCCCCCCC(CCCCCCC(=O)OCCC(CCCCCC)CCCCCC)N(CCCCCCCCCC)C(=O)OCCCN(C)C` (centres unmarked) [Compound 105, 3-hexylnonyl 8-(decyl((3-(dimethylamino)propoxy)carbonyl)-amino) octadecanoate], for which, in data set [1] (Table 26), the EGFP stood at 1.86E+07 pg/g liver. In data set [2] (Table 22), the “Final Product % EE” value came out at 97%, the “Final Product PDI” value is 0.08 and the “Final Product Z-avg” value stood at 82 nm. Also, the “Parent ionizable lipid remaining” value in data set [3] (Table 30) is 18.96 nmol/g liver.

`CCCCCCCCCCON(C(=O)CCCCN(C)C)C(CCCCCCCCCC)CCCCCCC(=O)OCCC(CCCCCCC)CCCCCCC` (centres unmarked) [Compound 99, 3-Heptyldecyl 8-(N-(decyloxy)-5-(dimethylamino)pentanamido)octadecanoate]: the EGFP in data set [1] (Table 25) is given as 1.05E+06 pg/g liver. Besides, in data set [2] (Table 21), the “Final Product % EE” value is 97%, the “Final Product PDI” value was found to be 0.04 and the “Final Product Z-avg” value is reported as 86 nm. The “Parent ionizable lipid remaining” value in data set [3] (Table 29) is 19.93 nmol/g liver.

Consider `CCCCCCCCCCN(C(=O)CCCN(C)C)C(CCCCCCCCC)CCCCC(F)C(=O)OC(CCCCCCC)CCCCCCC` (centres unmarked) [Compound 122, Pentadecan-8-yl 7-(N-decyl-4-(dimethylamino)butanamido)-2-fluorohexadecanoate], for which the EGFP in data set [1] (Table 27) was 2.35E+07 pg/g liver. In data set [2] (Table 23), the “Final Product % EE” value was 100%, the “Final Product PDI” value turned out to be 0.13 and the “Final Product Z-avg” value was found to be 70 nm. For the same compound, the “Parent ionizable lipid remaining” value in data set [3] (Table 31) is 6.3 nmol/g liver.

With `CCCCCCCCCCN(C(=O)CCCN(C)C)C(CCCCCCCCC)CCCCCCC(F)(F)C(=O)OC(CCCCCCC)CCCCCCC` (centres unmarked) [Compound 93, Pentadecan-8-yl 9-(N-decyl-4-(dimethylamino)butanamido)-2,2-difluorooctadecanoate], the EGFP in data set [1] (Table 25) is on record as 1.77E+05 pg/g liver. Further, in data set [2] (Table 21), the “Final Product % EE” value amounted to 98%, the “Final Product PDI” value is on record as 0.02 and the “Final Product Z-avg” value is recorded as 69 nm. The “Parent ionizable lipid remaining” value in data set [3] (Table 29) is 24.61 nmol/g liver.

With `CCCCCCCCCCN(C(=O)CCCN(C)C)C(CCCCCCCCC)CCCCC(F)C(=O)OC(CCCCCCCC)CCCCCCCC` (centres unmarked) [Compound 123, Heptadecan-9-yl 7-(N-decyl-4-(dimethylamino)butanamido)-2-fluorohexadecanoate], the EGFP in data set [1] (Table 27) came out at 3.94E+07 pg/g liver. For the same compound, in data set [2] (Table 23), the “Final Product % EE” value worked out at 99%, the “Final Product PDI” value was 0.15 and the “Final Product Z-avg” value was 73 nm. The “Parent ionizable lipid remaining” value in data set [3] (Table 31) stood at 10.5 nmol/g liver.

`CCCCCCCCCCN(C(=O)CCCN(C)C)C(CCCCCCCCC)CCCCC(F)C(=O)OCC(CCCCCC)CCCCCCCC` (centres unmarked) [Compound 120, 2-Hexyldecyl 7-(N-decyl-4-(dimethylamino)butanamido)-2-fluorohexadecanoate] registered an EGFP in data set [1] (Table 27) of 1.90E+07 pg/g liver. Also, in data set [2] (Table 23), the “Final Product % EE” value turned out to be 99%, the “Final Product PDI” value worked out at 0.15 and the “Final Product Z-avg” value is listed as 69 nm. The “Parent ionizable lipid remaining” value in data set [3] (Table 31) is on record as 4.8 nmol/g liver.

With `CCCCCCCCCCN(C(=O)CCCN(C)C)C(CCCCCCCCC)CCCCCCC(F)(F)C(=O)OCCC(CCCCCCC)CCCCCCC` (centres unmarked) [Compound 18, 3-Heptyldecyl 9-(N-decyl-4-(dimethylamino)butanamido)-2,2-difluorooctadecanoate], in data set [4] (Table 6), the “Final Product % EE” value stood at 98%, the “Final Product PDI” value is given as 0.07 and the “Final Product Z-avg” value turned out to be 73 nm. In addition, in data set [5] (Table 13), the “Luc Activity” value was 4.32E+07 pg/g liver. Moreover, in data set [6] (Table 17, female mice (n = 4)), the “Parent ionizable lipid remaining” value is recorded as 17.02 nmol/g liver.

On to `CCCCC/C=C\CCCN(CCC/C=C\CCCCC)NC(=O)CC(CCCCCCCCC)N(CCCN(C)C)C(=O)CCCCCCCCC` (centres unmarked) [Compound 54, N-(1-(2,2-di((Z)-Dec-4-en-1-yl)hydrazineyl)-1-oxododecan-3-yl)-N-(3-(dimethylamino)-propyl)decanamide], for which, in data set [4] (Table 3), the “Final Product % EE” value worked out at 97%, the “Final Product PDI” value is on record as 0.05 and the “Final Product Z-avg” value turned out to be 82 nm. Also, in data set [5] (Table 10), the “Luc Activity” value stood at 3.28E+06 pg/g liver. Moreover, the “Parent ionizable lipid remaining” value in data set [6] (setting [7]) is given as 17.78 nmol/g liver.

In the case of `CCCCCCCCCCCCCOC(=O)CCCCC(CCCCCCCCCC)N(CCN(C)C)C(=O)CCCCCCC(=O)OCC(CCCC)CCCCCC` (centres unmarked) [Compound 24, Tridecyl 6-(8-((2-butyloctyl)oxy)-N-(2-(dimethylamino)ethyl)-8-oxooctanamido)-hexadecanoate], in data set [4] (Table 3), the “Final Product % EE” value is given as 96%, the “Final Product PDI” value is 0.08 and the “Final Product Z-avg” value is on record as 72 nm. Further, the “Luc Activity” value in data set [5] (Table 10) turned out to be 3.98E+06 pg/g liver. Also, the “Parent ionizable lipid remaining” value in data set [6] (setting [7]) came to 35.16 nmol/g liver.

Take `CCCCCCCCCCN(C(=O)CCCN(C)C)C(CCCCCCCCC)CCCCCCC(F)C(=O)OCCC(CCCCCC)CCCCCC` (centres unmarked) [Compound 76, 3-Hexylnonyl 9-[N-decyl-4-(dimethylamino)butanamido]-2-fluorooctadecanoate]: in data set [4] (Table 7), the “Final Product % EE” value worked out at 98%, the “Final Product PDI” value came to 0.07 and the “Final Product Z-avg” value amounted to 69 nm. The “Luc Activity” value in data set [5] (Table 14) was 2.09E+07 pg/g liver. Further, the “Parent ionizable lipid remaining” value in data set [6] (Table 18, female BALB/c mice (n = 4)) turned out to be 17.86 nmol/g liver.

In the case of `CCCCCCCCCCC(CCCCC(=O)OCc1cc(CCCCCC)cc(CCCCCC)c1)N(CCCN(C)C)C(=O)CCCCCCCCC` (centres unmarked) [Compound 60, (3,5-dihexylphenyl)methyl 6-{N-[3-(dimethylamino)propyl]decanamido}hexadecanoate], in data set [4] (Table 3), the “Final Product % EE” value was 99%, the “Final Product PDI” value worked out at 0.05 and the “Final Product Z-avg” value is 73 nm. Further, the “Luc Activity” value in data set [5] (Table 10) is listed as 8.23E+06 pg/g liver. Further, in data set [6] (setting [7]), the “Parent ionizable lipid remaining” value was 35.39 nmol/g liver.

With `CCCCC/C=C\CCCC(CCC/C=C\CCCCC)NNC(=O)CC(CCCCCCCCC)N(CCCN(C)C)C(=O)CCCCCCCCC` (centres unmarked) [Compound 59, N-(3-(Dimethylamino)propyl)-N-(1-(2-((6Z,15Z)-henicosa-6,15-dien-11-yl)hydrazineyl)-1-oxododecan-3-yl)decanamide], in data set [4] (Table 3), the “Final Product % EE” value was 99%, the “Final Product PDI” value is recorded as 0.07 and the “Final Product Z-avg” value amounted to 82 nm. Further, the “Luc Activity” value in data set [5] (Table 10) is 1.12E+06 pg/g liver. Moreover, the “Parent ionizable lipid remaining” value in data set [6] (setting [7]) is 22.67 nmol/g liver.
